One assay deals with T1, hFP (Homo sapiens, UniProt P43088).
T1 construct: expressed in transfected cells
The experiment in a line: FLIPR calcium signal, FP. In kind it is cell-based. The conditions noted are these: HEK-293(EBNA). On the procedure:
HEK-293(EBNA) cells, stably expressing one type or subtype of recombinant human prostaglandin receptors (prostaglandin receptors expressed: hDP/Gqs5; hEP1; hEP2/Gqs5; hEP3A/Gqi5; hEP4/Gqs5; hFP; hIP; hTP), were cultured in 100 mm culture dishes in high-glucose DMEM medium containing 10% fetal bovine serum, 2 mM 1-glutamine, 250 μg/ml geneticin (G418) and 200 μg/ml hygromycin B as selection markers, and 100 units/ml penicillin G, 100 μg/ml streptomycin and 0.25 μg/ml amphotericin B.
Cells were seeded at a density of 5×10^4 cells per well in Biocoat® Poly-D-lysine-coated black-wall, clear-bottom 96-well plates (Becton-Dickinson) and allowed to attach overnight in an incubator at 37° C. Cells were then washed two times with HBSS-HEPES buffer (Hanks Balanced Salt Solution without bicarbonate and phenol red, 20 mM HEPES, pH 7.4) using a Denley Cellwash plate washer (Labsystems). After 45 minutes of dye-loading in the dark, using the calcium-sensitive dye Fluo-4 AM at a final concentration of 2 μM, plates were washed four times with HBSS-HEPES buffer to remove excess dye leaving 100 μl in each well. Plates were re-equilibrated to 37° C. for a few minutes.
Cells were excited with an Argon laser at 488 nm, and emission was measured through a 510-570 nm bandwidth emission filter (FLIPR™, Molecular Devices, Sunnyvale, Calif.). Drug solution was added in a 50 μl volume to each well to give the desired final concentration. The peak increase in fluorescence intensity was recorded for each well. On each plate, four wells each served as negative (HBSS-HEPES buffer) and positive controls (standard agonists: BW245C (hDP); PGE2 (HEP1; hEP2/Gqs5; hEP3A/Gqi5; hEP4/Gqs5); PGF2α (hFP); carbacyclin (hIP); U-46619 (hTP), depending on receptor). The peak fluorescence change in each drug-containing well was then expressed relative to the controls.
Compounds were tested in a high-throughput (HTS) or concentration-response (CoRe) format. In the HTS format, forty-four compounds per plate were examined in duplicates at a concentration of 10^−5 M. To generate concentration-response curves, four compounds per plate were tested in duplicates in a concentration range between 10^−5 and 10^−11 M. The duplicate values were averaged. In either, HTS or CoRe format each compound was tested on at least 3 separate plates using cells from different passages to give an n≧3.

Another assay deals with T2, EP4 receptors (Homo sapiens, UniProt P35408).
T2 construct: expressed in transfected cells; membrane pellet
T2 sequence (P35408 whole entry): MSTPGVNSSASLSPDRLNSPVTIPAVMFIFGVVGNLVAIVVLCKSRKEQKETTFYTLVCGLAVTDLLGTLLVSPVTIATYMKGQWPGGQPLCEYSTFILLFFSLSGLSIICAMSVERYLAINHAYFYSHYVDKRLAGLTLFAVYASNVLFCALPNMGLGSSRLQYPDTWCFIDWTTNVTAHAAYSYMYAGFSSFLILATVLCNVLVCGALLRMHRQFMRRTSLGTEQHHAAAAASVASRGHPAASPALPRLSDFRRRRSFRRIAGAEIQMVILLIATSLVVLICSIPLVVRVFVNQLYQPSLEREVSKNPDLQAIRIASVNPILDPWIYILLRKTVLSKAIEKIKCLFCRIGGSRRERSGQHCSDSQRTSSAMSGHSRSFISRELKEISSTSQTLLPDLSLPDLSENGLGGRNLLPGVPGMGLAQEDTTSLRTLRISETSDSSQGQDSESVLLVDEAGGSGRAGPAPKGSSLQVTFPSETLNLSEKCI
The assay is described as follows: Radioligand binding, [3H]PGE2, EP4 (Ki). Particulars: HEK-293 cells stably expressing EP4, [3H]PGE2. On the procedure:
HEK-293 cells stably expressing the human or feline FP receptor, or EP1, EP2, or EP4 receptors were washed with TME buffer, scraped from the bottom of the flasks, and homogenized for 30 sec using a Brinkman PT 10/35 polytron. TME buffer was added to achieve a final 40 ml volume in the centrifuge tubes (the composition of TME is 100 mM TRIS base, 20 mM MgCl2, […]; 10N HCl is added to achieve a pH of 7.4).
The cell homogenate was centrifuged at 19000 r.p.m. for 20 min at 4° C using a Beckman Ti-60 rotor. The resultant pellet was resuspended in TME buffer to give a final 1 mg/ml protein concentration, as determined by Biorad assay. Radioligand binding competition assays vs. [^3H-]17-phenyl PGF2α. (5 nM) were performed in a 100 μl volume for 60 min. Binding reactions were started by adding plasma membrane fraction. The reaction was terminated by the addition of 4 ml ice-cold TRIS-HCl buffer and rapid filtration through glass fiber GF/B filters using a Brandel cell harvester. The filters were washed 3 times with ice-cold buffer and oven dried for one hour.
[^3H-] PGE2 (specific activity 180 Ci mmol) was used as the radioligand for EP receptors. [^3H] 17-phenyl PGF2α, was employed for FP receptor binding studies. Binding studies employing EP1, EP2, EP4 and FP receptors were performed in duplicate in at least three separate experiments. A 200 μl assay volume was used. Incubations were for 60 min at 25° C. and were terminated by the addition of 4 ml of ice-cold 50 mM TRIS-HCl, followed by rapid filtration through Whatman GF/B filters and three additional 4 ml washes in a cell harvester (Brandel). Competition studies were performed using a final concentration of 5 nM [^3H]-PGE2, or 5 nM [^3H] 17-phenyl PGF2αand non-specific binding determined with 10^−5M of unlabeled PGE2, or 17-phenyl PGF2α, according to receptor subtype studied.

In general, Ki refers to the equilibrium dissociation constant of an inhibitor or competing ligand from its target. A higher Ki goes with lower affinity.

T1 sequence (P43088 whole entry): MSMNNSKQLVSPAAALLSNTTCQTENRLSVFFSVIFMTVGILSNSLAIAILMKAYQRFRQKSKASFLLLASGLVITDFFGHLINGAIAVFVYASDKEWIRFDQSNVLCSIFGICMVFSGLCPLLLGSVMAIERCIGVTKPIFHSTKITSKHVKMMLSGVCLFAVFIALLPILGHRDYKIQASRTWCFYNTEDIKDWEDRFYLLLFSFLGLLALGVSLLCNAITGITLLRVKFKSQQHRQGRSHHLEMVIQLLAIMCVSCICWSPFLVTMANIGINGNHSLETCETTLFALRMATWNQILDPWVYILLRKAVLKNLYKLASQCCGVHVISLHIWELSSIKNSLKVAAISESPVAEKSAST

As for `CCCCCC(O)c1ccc([C@@H]2[C@@H](CCCc3ccc(C(=O)O)s3)[C@H](Cl)C[C@H]2O)cc1` (stereo partly drawn) [Entry 2, 5-(3-{(1R,2S,3R,5R)-5-Chloro-3-hydroxy-2-[4-(1-hydroxy-hexyl)-phenyl]-cyclopentyl}-propyl)-thiophene-2-carboxylic acid], the “Ca2+ Signal-EC50 (nM) FP” value on hFP is “not active”. Further, on EP4 receptors, the Ki came to 3020 nM.
The matching figures for `CCCCCC(O)c1ccc([C@@H]2[C@@H](Cc3cccc(CCC(=O)O)c3)[C@H](Cl)C[C@H]2O)cc1` (stereo partly drawn) [Entry 3, 3-(3-{(1R,2S,3R,5R)-5-Chloro-3-hydroxy-2-[4-(1-hydroxy-hexyl)-phenyl]-cyclopentylmethyl}-phenyl)-propionic acid]: “not active” and 3950 nM.
In the case of `CCCC1(C(O)c2cccc([C@@H]3[C@@H](Cc4cccc(CCC(=O)O)c4)[C@H](Cl)C[C@H]3O)c2)CCC1` (stereo partly drawn) [Entry 4, 3-[3-((1R,2S,3R,5R)-5-Chloro-3-hydroxy-2-{3-[hydroxy-(1-propyl-cyclobutyl)-methyl]-phenyl}-cyclopentylmethyl)-phenyl]-propionic acid], on hFP, the “Ca2+ Signal-EC50 (nM) FP” value is listed as “not active”. Further, the Ki at EP4 receptors was over 10000 nM.
On to `CCCCCC(O)c1ccc([C@@H]2[C@@H](C/C=C\CCCC(=O)O)[C@@H](Cl)C[C@H]2O)cc1` (stereo partly drawn) [Entry 9, (Z)-7-{(1R,2S,3R,5S)-5-Chloro-3-hydroxy-2-[4-(1-hydroxy-hexyl)-phenyl]-cyclopentyl}-hept-5-enoic acid], for which the “Ca2+ Signal-EC50 (nM) FP” value at hFP is “not active”. This molecule yielded a Ki on EP4 receptors of 4590 nM.
Take `CCCCCC(O)c1ccc([C@@H]2[C@@H](CCCCCCC(=O)O)[C@H](Cl)C[C@H]2O)cc1` (stereo partly drawn) [Entry 14, 7-{(1R,2S,3R,5R)-5-Chloro-3-hydroxy-2-[4-(1-hydroxy-hexyl)-phenyl]-cyclopentyl}-heptanoic acid]: at hFP, the “Ca2+ Signal-EC50 (nM) FP” value is “not active”. At EP4 receptors, this molecule yielded a Ki of 8610 nM.
Regarding `O=C(O)CCC/C=C\C[C@@H]1[C@@H](c2ccc(C(O)CCC3CCCCC3)cc2)[C@H](O)C[C@H]1Cl` (stereo partly drawn) [Entry 15, (Z)-7-{(1R,2S,3R,5R)-5-Chloro-2-[4-(3-cyclohexyl-1-hydroxy-propyl)-phenyl]-3-hydroxy-cyclopentyl}-hept-5-enoic acid], the “Ca2+ Signal-EC50 (nM) FP” value on hFP was “not active”. On EP4 receptors, this molecule had a Ki of 3810 nM.
`O=C(O)CCCCCC[C@@H]1[C@@H](c2ccc(C(O)CCC3CCCCC3)cc2)[C@H](O)C[C@H]1Cl` (stereo partly drawn) [Entry 16, 7-{(1R,2S,3R,5R)-5-Chloro-2-[4-(3-cyclohexyl-1-hydroxy-propyl)-phenyl]-3-hydroxy-cyclopentyl}-heptanoic acid]: the “Ca2+ Signal-EC50 (nM) FP” value at hFP was “not active”. On EP4 receptors, this molecule came in with an inhibitory constant (Ki) of 5580 nM.
In the case of `O=C(O)CCCCCC[C@@H]1[C@@H](c2ccc(C(O)CC3CCCCC3)cc2)[C@H](O)C[C@H]1Cl` (stereo partly drawn) [Entry 18, 7-{(1R,2S,3R,5R)-5-Chloro-2-[4-(2-cyclohexyl-1-hydroxy-ethyl)-phenyl]-3-hydroxy-cyclopentyl}-heptanoic acid], the “Ca2+ Signal-EC50 (nM) FP” value on hFP was “not active”. Further, at EP4 receptors, the affinity corresponds to a Ki of 4940 nM.
With `O=C(O)CCCCCC[C@@H]1[C@@H](c2ccc(C(O)Cc3ccccc3)cc2)[C@H](O)C[C@H]1Cl` (stereo partly drawn) [Entry 22, 7-{(1 R,2S,3R,5R)-5-Chloro-3-hydroxy-2-[4-(1-hydroxy-2-phenyl-ethyl)-phenyl]-cyclopentyl}-heptanoic acid], at hFP, the “Ca2+ Signal-EC50 (nM) FP” value is “not active”. For the same molecule, the Ki at EP4 receptors is over 10000 nM.
As to `O=C(O)CCC/C=C\C[C@@H]1[C@@H](c2ccc(C(O)CCc3ccccc3)cc2)[C@H](O)C[C@H]1Cl` (stereo partly drawn) [Entry 23, (Z)-7-{(1R,2S,3R,5R)-5-Chloro-3-hydroxy-2-[4-(1-hydroxy-3-phenyl-propyl)-phenyl]-cyclopentyl}-hept-5-enoic acid], the “Ca2+ Signal-EC50 (nM) FP” value on hFP is on record as “not active”. The molecule further returned an inhibitory constant (Ki) at EP4 receptors of over 10000 nM.
The matching figures for `O=C(O)CCCCCC[C@@H]1[C@@H](c2ccc(C(O)CCc3ccccc3)cc2)[C@H](O)C[C@H]1Cl` (stereo partly drawn) [Entry 24, 7-{(1R,2S,3R,5R)-5-Chloro-3-hydroxy-2-[4-(1-hydroxy-3-phenyl-propyl)-phenyl]-cyclopentyl}-heptanoic acid]: “not active” and over 10000 nM.
Turning to `CCCCCCC(O)c1ccc([C@@H]2[C@@H](C/C=C\CCCC(=O)O)[C@H](Cl)C[C@H]2O)cc1` (stereo partly drawn) [Entry 25, (Z)-7-{(1R,2S,3R,5R)-5-Chloro-3-hydroxy-2-[4-(1-hydroxy-heptyl)-phenyl]-cyclopentyl}-hept-5-enoic acid], at hFP, the “Ca2+ Signal-EC50 (nM) FP” value is given as “not active”. The molecule also had a Ki on EP4 receptors of 2260 nM.
For the molecule `CCCC(O)c1ccc([C@@H]2[C@@H](C/C=C\CCCC(=O)O)[C@H](Cl)C[C@H]2O)cc1` (stereo partly drawn) [Entry 26, (Z)-7-{(1R,2S,3R,5R)-5-Chloro-3-hydroxy-2-[4-(1-hydroxy-butyl)-phenyl]-cyclopentyl}-hept-5-enoic acid], on hFP, the “Ca2+ Signal-EC50 (nM) FP” value is “not active”. Further, the Ki at EP4 receptors is over 10000 nM.
Take `O=C(O)CCC/C=C\C[C@@H]1[C@@H](c2ccc(C(O)c3ccccc3)cc2)[C@H](O)C[C@H]1Cl` (stereo partly drawn) [Entry 28, (Z)-7-{(1R,2S,3R,5R)-5-Chloro-3-hydroxy-2-[4-(hydroxy-phenyl-methyl)-phenyl]-cyclopentyl}-hept-5-enoic acid]: the “Ca2+ Signal-EC50 (nM) FP” value at hFP is given as “not active”. Moreover, the “BINDING-Ki (nM) EP4” value at EP4 receptors is “not active”.
`CCCCCC(O)c1cccc([C@@H]2[C@@H](C/C=C\CCCC(=O)O)[C@H](Cl)C[C@H]2O)c1` (stereo partly drawn) [Entry 29, (Z)-7-{(1R,2S,3R,5R)-5-Chloro-3-hydroxy-2-[3-(1-hydroxy-hexyl)-phenyl]-cyclopentyl}-hept-5-enoic acid]: the “Ca2+ Signal-EC50 (nM) FP” value on hFP is recorded as “not active”. Moreover, the Ki on EP4 receptors was over 10000 nM.
The matching figures for `CCCCC(O)c1cccc([C@@H]2[C@@H](C/C=C\CCCC(=O)O)[C@H](Cl)C[C@H]2O)c1` (stereo partly drawn) [Entry 30, (Z)-7-{(1R,2S,3R,5R)-5-Chloro-3-hydroxy-2-[3-(1-hydroxy-pentyl)-phenyl]-cyclopentyl}-hept-5-enoic acid]: “not active” and over 10000 nM.
Turning to `CCCCCC(O)C(C)(C)c1ccc([C@@H]2[C@@H](C/C=C\CCCC(=O)O)[C@H](Cl)C[C@H]2O)cc1` (stereo partly drawn) [Entry 31, (Z)-7-{(1R,2S,3R,5R)-5-Chloro-3-hydroxy-2-[4-(2-hydroxy-1,1-dimethyl-heptyl)-phenyl]-cyclopentyl}-hept-5-enoic acid], the “Ca2+ Signal-EC50 (nM) FP” value at hFP is listed as “not active”. For the same molecule, on EP4 receptors, affinity was put at a Ki of 5410 nM.
The corresponding values for `CCCCCCc1ccc([C@@H]2[C@@H](C/C=C\CCCC(=O)O)[C@H](Cl)C[C@H]2O)cc1` [Entry 33, (Z)-7-[(1R,2S,3R,5R)-5-Chloro-2-(4-hexyl-phenyl)-3-hydroxy-cyclopentyl]-hept-5-enoic acid] are “not active” and over 10000 nM.

For the origin of these results see patent US7585895B2, “Therapeutic substituted cyclopentanes” (Allergan, Inc., priority 2005, dated 2009).
